# Residues, ends and D or L forms follow the SMILES beside them.
# Legend:
# Format in all cases: binding
# Set-up in all cases: made in house
# β-clamp [1] = molecular target: T1, β-clamp (Escherichia coli, UniProt P0A988); experiment: Saturation transfer difference (STD)-NMR of peptides with β-clamp; conditions: 150 µM peptide, 1.5 µM β-clamp; 25°C; 20 mM sodium phosphate, 100 mM NaCl, 5 mM DTT, 0.3% DMSO, 5% D2O, pH 7.4; 600 MHz
# Procedure: All peptides, except Pol III C-terminal ([sequence]), were N-terminally acetylated and C-terminally amidated to remove charges in the N-and C-termini, not present in the context of the full-length proteins.
# Unlabeled and ^2H, ^13C, ^15N-labeled E. coli β-clamp was expressed and purified as previously described [54]. The β-clamp concentration was determined by absorbance at 280 nm measured on a NanoDrop ND-1000 spectrophotometer (Thermo Fisher Scientific Inc.) and using an extinction coefficient calculated by the Expasy ProtParam web tool (https://web.expasy.org/protparam/) [55]. All β-clamp concentrations are listed as the protomer concentration. The peptides were readily soluble at micromolar concentration, although at high micromolar concentrations, we cannot rule out the presence of aggregates.
# Saturation transfer difference (STD)-nuclear magnetic resonance (NMR) experiments were performed at 25°C on a Bruker Avance III HD 600 MHz NMR spectrometer equipped with a 5-mm QCI Cryoprobe. […] Samples were transferred to 5-mm NMR tubes.
# β-clamp [2] = molecular target: T1, β-clamp; experiment: 2D TROSY-1H-15N-HSQC chemical shift perturbation of β-clamp; conditions: 140 µM 2H,13C,15N-labeled β-clamp, 700 µM peptide (five-fold molar excess); 37°C; 20 mM sodium phosphate, 100 mM NaCl, 5 mM DTT, 2% DMSO, pH 7.4
# Procedure: (§1) Unlabeled and ^2H, ^13C, ^15N-labeled E. coli β-clamp was expressed and purified as previously described. The β-clamp concentration was determined by absorbance at 280 nm measured on a NanoDrop ND-1000 spectrophotometer (Thermo Fisher Scientific Inc.) and using an extinction coefficient calculated by the Expasy ProtParam web tool (https://web.expasy.org/protparam/). All β-clamp concentrations are listed as the protomer concentration. The peptides were readily soluble at micromolar concentration, although at high micromolar concentrations, we cannot rule out the presence of aggregates.
# 2D TROSY-^1H-^15N-HSQC (Two-Dimensional Transverse Relaxation Optimized Spectroscopy Heteronuclear Single Quantum Coherence experiment correlating ^1H and ^15N nuclei) spectra were recorded of 140 µM ^2H, ^13C, ^15N-labeled β-clamp with and without the addition of 700 µM RecB nuclease motif peptide ([…]) in 20 mM sodium phosphate, 100 mM NaCl, 5 mM DTT, 5% (v/v) D2O, 125 µM DSS, 2% (v/v) DMSO, pH 7.4. […] The samples were transferred to 5-mm Shigemi tubes, and the NMR spectra were recorded at 37°C on a Bruker Avance III 750 MHz spectrometer equipped with a cryoprobe. […] The spectra were processed in Topspin (Bruker) and analyzed in CcpNmr Analysis. […] Chemical shift perturbations (CSPs) were calculated using the following equation [57]: […]
# β-clamp [3] = molecular target: T1, β-clamp; experiment: Isothermal titration calorimetry (ITC), β-clamp titrated into peptide; conditions: 25°C; pH 7.4; one-site model; n = 3; affected by inaccurate peptide concentration and methionine oxidation
# Procedure: as §1
# Unlabeled β-clamp was buffer-exchanged into 20 mM sodium phosphate, 100 mM NaCl, 1 mM tris(2-carboxyethyl)phosphine (TCEP), pH 7.4 using a 15-ml spin filter (10 000 MWCO) (Millipore, Darmstadt, Germany). DMSO was added to the β-clamp sample to a final concentration of 0.02% (v/v). RecB nuclease motif peptide ([…]) (dissolved in 100% DMSO) was diluted into the same buffer as above, with a final DMSO concentration of 0.02% (v/v). […] The isothermal titration calorimetry (ITC) experiments were repeated three times and were recorded at 25°C on a Malvern MicroCal PEAQ-ITC instrument (Malvern, Worcestershire, United Kingdom) using a stir speed of 750 rpm. […]
# T1 sequence (P0A988 whole entry): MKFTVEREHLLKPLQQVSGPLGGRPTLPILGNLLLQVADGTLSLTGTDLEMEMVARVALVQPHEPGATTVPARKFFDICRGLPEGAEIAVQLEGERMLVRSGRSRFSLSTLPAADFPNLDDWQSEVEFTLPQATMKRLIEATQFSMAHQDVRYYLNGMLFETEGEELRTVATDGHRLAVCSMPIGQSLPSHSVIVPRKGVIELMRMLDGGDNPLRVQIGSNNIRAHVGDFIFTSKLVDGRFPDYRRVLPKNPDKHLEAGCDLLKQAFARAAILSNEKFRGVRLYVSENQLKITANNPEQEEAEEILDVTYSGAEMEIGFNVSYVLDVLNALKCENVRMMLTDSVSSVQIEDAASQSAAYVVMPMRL
smiles,measurement,setting,value
CSCC[C@H](NC(=O)[C@H](CCC(=O)O)NC(=O)[C@@H](NC(=O)[C@H](CCC(N)=O)NC(=O)[C@H](CCCCN)NC(C)=O)C(C)C)C(=O)N[C@@H](CCC(=O)O)C(=O)N[C@@H](Cc1ccccc1)C(=O)N[C@@H](Cc1ccc(O)cc1)C(N)=O [QVEMEF] (Ac-KQVEMEFY-NH2),STD-NMR binding,β-clamp [1],"shows a distinct STD signal, indicating specific interaction"
same,chemical shift perturbations (CSPs) of β-clamp residues,β-clamp [2],"The largest CSPs localized to residues surrounding the canonical CBM binding pocket, including L177, Y244, V247, I317, S345, Q348, V361, M364, and R365"
same,N-value (stoichiometry),β-clamp [3],0.39 ± 0.02
